We go through 2 compounds from ChEMBL document CHEMBL2396564, “Synthesis and biological evaluation of a targeted DNA-binding transcriptional activator with HDAC8 inhibitory activity” (Bioorg Med Chem, 2013).

In series [1] the target is T1, Histone deacetylase 8 (Mus musculus) (UniProt Q8VH37).
T1 sequence (whole entry): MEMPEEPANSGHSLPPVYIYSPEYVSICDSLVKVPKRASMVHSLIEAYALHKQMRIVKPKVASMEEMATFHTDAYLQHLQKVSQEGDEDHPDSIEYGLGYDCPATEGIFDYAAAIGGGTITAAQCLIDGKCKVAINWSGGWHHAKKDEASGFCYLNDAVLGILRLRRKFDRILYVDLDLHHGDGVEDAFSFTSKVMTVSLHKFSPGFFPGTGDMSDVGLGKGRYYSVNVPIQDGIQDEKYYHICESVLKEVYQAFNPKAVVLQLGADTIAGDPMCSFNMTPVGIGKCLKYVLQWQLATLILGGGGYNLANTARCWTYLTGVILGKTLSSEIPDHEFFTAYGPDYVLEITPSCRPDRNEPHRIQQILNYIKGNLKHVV
Briefly: Inhibition of HDAC8 in C57BL/6 mouse embryonic fibroblasts assessed as induction of histone H3 hyperacetylation in promoter region of Lhx1 at 100 nM after 24 hrs by ChIP analysis.

The target of series [2] is T1, Histone deacetylase 8 (Mus musculus). Briefly: Inhibition of HDAC8 in C57BL/6 mouse embryonic fibroblasts assessed as induction of histone H3 hyperacetylation in promoter region of Otx2 at 100 nM after 24 hrs by ChIP analysis.
Series [3] shares this target. Briefly: Inhibition of HDAC8 in C57BL/6 mouse embryonic fibroblasts assessed as upregulation of Lhx1 expression at 100 nM after 24 hrs by qPCR analysis relative to control. (Quantitative PCR measures a nucleic acid by following its amplification.)
For series [4] the target is unchanged. Briefly: Inhibition of HDAC8 in C57BL/6 mouse embryonic fibroblasts assessed as upregulation of Otx2 expression at 100 nM after 24 hrs by qPCR analysis relative to control.
Series [5] shares this target. Briefly: Inhibition of HDAC8 in C57BL/6 mouse embryonic fibroblasts assessed as induction of histone H3 hyperacetylation in promoter region of Rex1 at 100 nM after 24 hrs by ChIP analysis.
Series [6] shares this target. Briefly: Inhibition of HDAC8 in C57BL/6 mouse embryonic fibroblasts assessed as induction of histone H3 hyperacetylation in promoter region of Cdh1 at 100 nM after 24 hrs by ChIP analysis.
For series [7] the target is unchanged. Briefly: Inhibition of HDAC8 in C57BL/6 mouse embryonic fibroblasts assessed as induction of histone H3 hyperacetylation in promoter region of Nanog at 100 nM after 24 hrs by ChIP analysis.
Series [8] has the same target. Briefly: Inhibition of HDAC8 in C57BL/6 mouse embryonic fibroblasts assessed as induction of histone H3 hyperacetylation in promoter region of Oct3/4 at 100 nM after 24 hrs by ChIP analysis.
Series [9] relates to MEF. Briefly: Upregulation of Klf4 expression in C57BL/6 mouse embryonic fibroblasts at 100 nM after 24 hrs by qPCR analysis. The class given is functional, cell-based.
Series [10] deals with MEF. Briefly: Cytotoxicity against C57BL/6 mouse embryonic fibroblasts assessed as cell viability at 10 uM after 24 hrs by WST-8 assay. In kind it is cell-based.
Series [11] deals with MEF. Briefly: Upregulation of c-Myc expression in C57BL/6 mouse embryonic fibroblasts at 100 nM after 24 hrs by qPCR analysis. In kind it is functional, cell-based.
Series [12] has as its target T1, Histone deacetylase 8 (Mus musculus). Briefly: Inhibition of HDAC8 in C57BL/6 mouse embryonic fibroblasts assessed as upregulation of Dppa4 expression at 100 nM after 24 hrs by qPCR analysis relative to control.
For series [13] the target is unchanged. Briefly: Inhibition of HDAC8 in C57BL/6 mouse embryonic fibroblasts assessed as upregulation of Cdh1 expression at 100 nM after 24 hrs by qPCR analysis relative to control.
For series [14] the target is unchanged. Briefly: Inhibition of HDAC8 in C57BL/6 mouse embryonic fibroblasts assessed as upregulation of Rex1 expression at 100 nM after 24 hrs by qPCR analysis relative to control.
Series [15] shares this target. Briefly: Inhibition of HDAC8 in C57BL/6 mouse embryonic fibroblasts assessed as upregulation of Sox2 expression at 100 nM after 24 hrs by qPCR analysis relative to control.
Series [16] has the same target. Briefly: Inhibition of HDAC8 in C57BL/6 mouse embryonic fibroblasts assessed as upregulation of Nanog expression at 100 nM after 24 hrs by qPCR analysis relative to control.
Series [17] has the same target. Briefly: Inhibition of HDAC8 in C57BL/6 mouse embryonic fibroblasts assessed as upregulation of Oct3/4 expression at 100 nM after 24 hrs by qPCR analysis relative to control.
The next series has as its target T2, Histone deacetylase 8 (Homo sapiens, UniProt Q9BY41).
T2 sequence (Q9BY41 whole entry): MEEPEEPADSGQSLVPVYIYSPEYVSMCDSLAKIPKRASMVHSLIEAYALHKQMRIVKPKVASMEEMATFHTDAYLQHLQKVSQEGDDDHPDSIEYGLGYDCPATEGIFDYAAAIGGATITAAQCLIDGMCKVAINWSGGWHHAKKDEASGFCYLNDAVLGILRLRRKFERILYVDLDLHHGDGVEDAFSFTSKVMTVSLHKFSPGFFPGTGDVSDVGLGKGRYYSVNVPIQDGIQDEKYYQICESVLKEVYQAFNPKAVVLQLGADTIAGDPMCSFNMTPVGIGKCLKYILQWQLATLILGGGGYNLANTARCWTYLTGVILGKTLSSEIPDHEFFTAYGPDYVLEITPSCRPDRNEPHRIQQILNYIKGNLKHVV
Briefly: Inhibition of HDAC8 (unknown origin) after 30 mins by fluorometric analysis.

A further series addresses Histone deacetylase 1 (Homo sapiens, UniProt Q13547). Briefly: Inhibition of HDAC1 (unknown origin) after 30 mins by fluorometric analysis.
The target in a further series is Histone deacetylase 2 (Homo sapiens, UniProt Q92769). Briefly: Inhibition of HDAC2 (unknown origin) after 30 mins by fluorometric analysis.
Sequence of Histone deacetylase 2 (Q92769 whole entry): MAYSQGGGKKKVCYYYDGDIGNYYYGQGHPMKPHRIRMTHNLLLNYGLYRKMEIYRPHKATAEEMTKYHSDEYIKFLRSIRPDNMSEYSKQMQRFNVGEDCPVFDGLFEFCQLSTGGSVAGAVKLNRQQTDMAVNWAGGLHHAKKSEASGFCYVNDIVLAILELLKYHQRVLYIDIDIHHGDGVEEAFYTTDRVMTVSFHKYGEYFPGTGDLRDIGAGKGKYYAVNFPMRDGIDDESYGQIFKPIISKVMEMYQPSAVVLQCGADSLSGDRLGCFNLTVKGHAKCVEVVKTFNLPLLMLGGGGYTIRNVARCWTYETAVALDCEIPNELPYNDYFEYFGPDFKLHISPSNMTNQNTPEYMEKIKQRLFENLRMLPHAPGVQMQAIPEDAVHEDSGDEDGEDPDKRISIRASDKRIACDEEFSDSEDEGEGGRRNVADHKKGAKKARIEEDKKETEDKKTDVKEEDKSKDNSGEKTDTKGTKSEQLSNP
In series [18] the target is T3, Histone deacetylase 8 (Homo sapiens) (UniProt Q9BY41).
T3 sequence (whole entry): T2 sequence (Q9BY41 whole entry)
Briefly: Ratio of trichostatin A IC50 to compound IC50 for HDAC8 (unknown origin).

Molecules are shown by their SMILES. Active and inactive are the calls of the source. The calls are words filed in the database; no cut-off is given here.

Sequence of Histone deacetylase 1 (Q13547 whole entry): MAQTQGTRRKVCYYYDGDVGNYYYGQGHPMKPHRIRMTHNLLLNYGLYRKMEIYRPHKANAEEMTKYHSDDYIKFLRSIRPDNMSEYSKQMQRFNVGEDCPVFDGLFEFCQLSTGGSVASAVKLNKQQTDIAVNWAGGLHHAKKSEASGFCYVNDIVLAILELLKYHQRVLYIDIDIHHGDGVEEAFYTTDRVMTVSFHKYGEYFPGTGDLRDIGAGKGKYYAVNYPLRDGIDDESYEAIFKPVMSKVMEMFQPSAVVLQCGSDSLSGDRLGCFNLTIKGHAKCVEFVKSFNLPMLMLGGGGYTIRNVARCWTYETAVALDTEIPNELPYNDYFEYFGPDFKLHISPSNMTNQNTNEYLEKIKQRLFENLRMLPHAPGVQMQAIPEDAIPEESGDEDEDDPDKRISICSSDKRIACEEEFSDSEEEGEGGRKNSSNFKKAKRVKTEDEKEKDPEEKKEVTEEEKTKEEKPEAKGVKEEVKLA

On to `CN(C)CCCNC(=O)c1cc(NC(=O)c2cc(NC(=O)c3cc(NC(=O)c4nc(NC(=O)CCCNC(=O)c5cc(NC(=O)c6cc(NC(=O)c7cc(NC(=O)c8nc(NC(=O)CCNC(=O)CCNC(=O)c9ccc(NC(=O)CCCCCCC(=O)NO)cc9)cn8C)cn7C)cn6C)cn5C)cn4C)cn3C)cn2C)cn1C`, for which the inhibition result in series [1] and in series [3] was “inactive” each time. The inhibition result in series [2], in [5], in series [6], in series [7] and in series [8] was “Active” each time. The fold change (FC) in series [4] was found to be 40; in [12] it was 2; in series [13], 25; in series [14] it was 60; in series [15], 6; in series [16], 20. Further, the fold change (FC) in [17] was 20. Moreover, the result in the series on MEF [9] and in the series with MEF [11] was inactive. The Activity result in the series on MEF [10] is “Non-toxic”. The IC50 – broadly, the concentration that gives 50% inhibition – came to 820 nM on Histone deacetylase 8, 370 nM on Histone deacetylase 1 and 770 nM against Histone deacetylase 2.

Consider `CN(C)CCCNC(=O)c1cc(NC(=O)c2cc(NC(=O)c3cc(NC(=O)c4nc(NC(=O)CCCNC(=O)c5cc(NC(=O)c6cc(NC(=O)c7cc(NC(=O)c8nc(NC(=O)CCNC(=O)CCNC(=O)CCCCCCC(=O)NO)cn8C)cn7C)cn6C)cn5C)cn4C)cn3C)cn2C)cn1C`, for which the inhibition result in series [1], in series [2], in series [5], in series [6], in series [7] and in [8] was “Active” in each case. Further, the fold change (FC) was found to be 2.6 in series [3]; 74 in [4]; 2 in [12]; 25 in series [13]; 60 in series [14]; 6 in [15]. The fold change (FC) in [16] was found to be 16; in series [17] it was 20. The result in the series on MEF [9] and with MEF [11] was inactive. For the same compound, the Activity entry with MEF [10] is listed as “Non-toxic”. Besides, the Ratio IC50 in series [18] was found to be 10. The half-maximal inhibitory concentration (IC50) came out at 130 nM against Histone deacetylase 8, 490 nM on Histone deacetylase 1 and 1120 nM at Histone deacetylase 2.
